# Read-outs that look alike come from different tables or passages of the source.
# Target: GSK-3β (Homo sapiens, UniProt P49841)
# Experiment: Assay for GSK-3β inhibiting activity (32P-ATP, phospho-CREB peptide substrate, filter paper, CPM)
# Assay type: biochemical
# Experimental: Assay for GSK-3β inhibiting activity
# First, PCR (polymerase chain reaction) was carried out using human DNA as a template as well as primers which were designed to correspond to the 3′- and 5′ ends of the polynucleotide coding human GSK-3β gene (Genbank Accession No.: L33801). The BamH1/XhoI fragment of the amplified PCR product thus obtained was inserted into the pGex vector between the BamH1 and XhoI sites, and the vector obtained was transformed into E. coli BL21(DE3). The transformed cells thus obtained was incubated in […] (1% Bacto-trypton, 0.5% yeast extract, 1% NaCl) containing ampicillin ([…]) until the optical density at 600 nm reached about 0.5. The cultured mixture was cooled to 18° C. and isopropyl β-D-thiogalacto-pyranoside (IPTG) was added thereto to a final concentration of 0.5 mM. After 16 hours, the resultant was centrifuged at 10,000×g for 10 min, the collected cells were suspended in a buffer solution (30 mM Tris-HCl (pH 7.5), 100 mM NaCl, 5% glycerol, 2 mM DTT) and the cells were disrupted using Sonic Dismembrator (Fisher, U.S.A.) in a ice bath. The resulting solution was centrifuged at 16,000 rpm for 30 minutes. […] The purified GSK-3β protein was diluted in a buffer solution (20 mM HEPES (pH 7.5), 5% glycerol, 2 mM DTT) to a final concentration of 50 mM NaCl and the resulting solution was subjected to mono S column chromatography (eluent: linear gradient from 0M to 1M NaCl buffer) using mono S column (Pharmacia Biotech, U.S.A.) equilibrated in the same buffer solution to obtain GSK-3β protein.
# The reaction was stopped by adding 5 μl of 5% phosphoric acid to 25 μl of the resulting solution. The resulting mixture was centrifuged at 15,000 rpm for 10 min, 20 μl of the supernatant was added dropwise to Whatman p81 filter paper, and then, the resulting filter paper was washed with 0.5% phosphate buffer for 10 min. The filter paper was further washed 3 times and the enzymatic activity was determined by examining the extent of phospho-CREB peptide phosphorylation which is represented by the unit of count per minute (CPM), measured with a β-counter (Packard, USA).
# The GSK-3β inhibiting activity was then calculated in accordance with the following equation:
# [formula] wherein the blank represents a value obtained without the use of the enzyme and the compound of the present invention, and the control, in the absence of the compound of the present invention.
# [1] = GSK-3β inhibiting activity, 100 nM GSK-3β protein, 100 μM phospho-CREB peptide, 100 μM ATP, 30° C. for 1 hour, read-out: IC50
# GSK-3β, sequence (P49841 whole entry): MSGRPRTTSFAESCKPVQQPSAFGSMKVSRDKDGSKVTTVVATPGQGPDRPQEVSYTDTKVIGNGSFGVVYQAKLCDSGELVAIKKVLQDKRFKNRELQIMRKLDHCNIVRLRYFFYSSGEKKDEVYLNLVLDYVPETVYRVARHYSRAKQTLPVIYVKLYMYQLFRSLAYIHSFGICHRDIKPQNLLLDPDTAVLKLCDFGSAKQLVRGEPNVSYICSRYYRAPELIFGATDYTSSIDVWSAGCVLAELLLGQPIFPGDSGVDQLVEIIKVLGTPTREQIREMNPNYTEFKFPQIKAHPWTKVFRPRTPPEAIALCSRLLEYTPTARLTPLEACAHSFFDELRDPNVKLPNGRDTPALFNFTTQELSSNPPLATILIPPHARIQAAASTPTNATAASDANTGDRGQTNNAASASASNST
SMILES,IC50 [1] [µM],IC50 (IC50 (μM)) [µM]
"NC(=O)c1ccc(O)c2[nH]c(-c3ccccc3)nc12 [Compound 1, 7-hydroxy-2-phenyl-1H-benzoimidazole-4-carboxylic acid amide]",> 1,–
Nc1ccc(NC(=O)c2ccc(O)c3[nH]c(-c4ccccc4)nc23)cc1 [Compound 4],> 1,–
O=C(NC1CCC(O)CC1)c1ccc(O)c2[nH]c(-c3ccccc3)nc12 (stereo not drawn) [Compound 5],0.3,–
O=C(Nc1ccc(CO)cc1)c1ccc(O)c2[nH]c(-c3ccccc3)nc12 [Compound 6],> 1,–
NCCc1ccc(NC(=O)c2ccc(O)c3[nH]c(-c4ccccc4)nc23)cc1 [Compound 8],> 1,–
Cc1ccc(S(=O)(=O)NCCc2ccc(NC(=O)c3ccc(O)c4[nH]c(-c5ccccc5)nc34)cc2)cc1 [Compound 9],0.18,–
CS(=O)(=O)NCCc1ccc(NC(=O)c2ccc(O)c3[nH]c(-c4ccccc4)nc23)cc1 [Compound 10],0.04,–
O=C(Nc1ccc(CCN2C(=O)c3ccccc3C2=O)cc1)c1ccc(O)c2[nH]c(-c3ccccc3)nc12 [Compound 11],> 5,–
O=C(Nc1ccc(CCNS(=O)(=O)c2cccs2)cc1)c1ccc(O)c2[nH]c(-c3ccccc3)nc12 [Compound 12],0.2,–
CCS(=O)(=O)NCCc1ccc(NC(=O)c2ccc(O)c3[nH]c(-c4ccccc4)nc23)cc1 [Compound 13],0.36,–
O=C(Nc1ccccc1)c1ccc(O)c2[nH]c(-c3ccc(Cl)cc3)nc12 [Compound 14],> 1,–
O=C(NC1CCC(O)CC1)c1ccc(O)c2[nH]c(-c3ccc(Cl)cc3)nc12 (stereo not drawn) [Compound 15],0.11,–
Cc1ccc(S(=O)(=O)NCCc2ccc(NC(=O)c3ccc(O)c4[nH]c(-c5ccc(Cl)cc5)nc34)cc2)cc1 [Compound 16],0.7,–
CS(=O)(=O)NCCc1ccc(NC(=O)c2ccc(O)c3[nH]c(-c4ccc(Cl)cc4)nc23)cc1 [Compound 17],0.24,–
O=C(Nc1ccc(CCN2C(=O)c3ccccc3C2=O)cc1)c1ccc(O)c2[nH]c(-c3ccc(Cl)cc3)nc12 [Compound 18],> 1,–
O=C(Nc1ccc(CCNS(=O)(=O)c2cccs2)cc1)c1ccc(O)c2[nH]c(-c3ccc(Cl)cc3)nc12 [Compound 19],> 1,–
CCS(=O)(=O)NCCc1ccc(NC(=O)c2ccc(O)c3[nH]c(-c4ccc(Cl)cc4)nc23)cc1 [Compound 20],4.1,–
O=C(Nc1ccccc1)c1ccc(O)c2[nH]c(-c3ccc(Cl)cc3Cl)nc12 [Compound 22],> 1,–
O=C(NC1CCC(O)CC1)c1ccc(O)c2[nH]c(-c3ccc(Cl)cc3Cl)nc12 (stereo not drawn) [Compound 23],0.68,–
NCCc1ccc(NC(=O)c2ccc(O)c3[nH]c(-c4ccc(Cl)cc4Cl)nc23)cc1 [Compound 24],> 5,–
Nc1ccc(NC(=O)c2ccc(O)c3[nH]c(-c4ccc(Cl)cc4Cl)nc23)cc1 [Compound 25],> 1,–
O=C(Nc1ccc(CO)cc1)c1ccc(O)c2[nH]c(-c3ccc(Cl)cc3Cl)nc12 [Compound 26],> 1,–
O=C(Nc1ccc(CCO)cc1)c1ccc(O)c2[nH]c(-c3ccc(Cl)cc3Cl)nc12 [Compound 27],> 1,–
Cc1ccc(S(=O)(=O)NCCc2ccc(NC(=O)c3ccc(O)c4[nH]c(-c5ccc(Cl)cc5Cl)nc34)cc2)cc1 [Compound 28],0.74,–
CS(=O)(=O)NCCc1ccc(NC(=O)c2ccc(O)c3[nH]c(-c4ccc(Cl)cc4Cl)nc23)cc1 [Compound 29],–,0.08
O=C(Nc1ccc(CCN2C(=O)c3ccccc3C2=O)cc1)c1ccc(O)c2[nH]c(-c3ccc(Cl)cc3Cl)nc12 [Compound 30],> 1,–
O=C(Nc1ccc(CCNS(=O)(=O)c2cccs2)cc1)c1ccc(O)c2[nH]c(-c3ccc(Cl)cc3Cl)nc12 [Compound 31],> 1,–

SMILES,IC50 [1] [µM],IC50 (IC50 (μM)) [µM]
CCS(=O)(=O)NCCc1ccc(NC(=O)c2ccc(O)c3[nH]c(-c4ccc(Cl)cc4Cl)nc23)cc1 [Compound 32],0.5,–
CS(=O)(=O)NCCc1ccc(NC(=O)c2ccc(O)c3[nH]c(-c4ccc(F)cc4)nc23)cc1 [Compound 33],> 1,–
Cc1ccc(S(=O)(=O)NCCc2ccc(NC(=O)c3ccc(O)c4[nH]c(-c5ccc(F)cc5)nc34)cc2)cc1 [Compound 34],> 1,–
CCS(=O)(=O)NCCc1ccc(NC(=O)c2ccc(O)c3[nH]c(-c4ccc(F)cc4)nc23)cc1 [Compound 35],0.007,–
O=C(Nc1ccc(N2CCOCC2)cc1)c1ccc(O)c2[nH]c(-c3ccc(F)cc3)nc12 [Compound 36],> 1,–
CS(=O)(=O)NCCc1ccc(NC(=O)c2ccc(O)c3[nH]c(-c4ccc(F)cc4F)nc23)cc1 [Compound 37],> 1,–
Cc1ccc(S(=O)(=O)NCCc2ccc(NC(=O)c3ccc(O)c4[nH]c(-c5ccc(F)cc5F)nc34)cc2)cc1 [Compound 38],> 1,–
CCS(=O)(=O)NCCc1ccc(NC(=O)c2ccc(O)c3[nH]c(-c4ccc(F)cc4F)nc23)cc1 [Compound 39],> 1,–
Cc1ccc(S(=O)(=O)NCCc2ccc(NC(=O)c3ccc(O)c4[nH]c(-c5ccc(F)cc5Cl)nc34)cc2)cc1 [Compound 40],> 1,–
CS(=O)(=O)NCCc1ccc(NC(=O)c2ccc(O)c3[nH]c(-c4ccc(F)cc4Cl)nc23)cc1 [Compound 41],> 1,–
CCS(=O)(=O)NCCc1ccc(NC(=O)c2ccc(O)c3[nH]c(-c4ccc(F)cc4Cl)nc23)cc1 [Compound 42],> 1,–
Cc1ccc(S(=O)(=O)NCCc2ccc(NC(=O)c3ccc(O)c4[nH]c(-c5ccc(F)c(Cl)c5)nc34)cc2)cc1 [Compound 43],> 1,–
CCS(=O)(=O)NCCc1ccc(NC(=O)c2ccc(O)c3[nH]c(-c4ccc(F)c(Cl)c4)nc23)cc1 [Compound 44],> 1,–
CS(=O)(=O)NCCc1ccc(NC(=O)c2ccc(O)c3[nH]c(-c4ccc(F)c(Cl)c4)nc23)cc1 [Compound 45],0.02,–
O=C(c1ccc(O)c2[nH]c(-c3ccc(Cl)cc3Cl)nc12)N1CCCCC1 [Compound 48],> 5,–
O=C(NCc1ccc([N+](=O)[O-])cc1)c1ccc(O)c2[nH]c(-c3ccccc3)nc12 [Compound 49],0.6,–
Nc1ccc(CNC(=O)c2ccc(O)c3[nH]c(-c4ccccc4)nc23)cc1 [Compound 50],0.6,–
O=C(NCc1ccccc1)c1ccc(O)c2nc(-c3ccccc3)[nH]c12 [Compound 51],0.87,–
O=C(NCc1ccccc1)c1ccc(O)c2[nH]c(-c3ccc(Cl)cc3)nc12 [Compound 52],> 1,–
O=C(NCc1ccc([N+](=O)[O-])cc1)c1ccc(O)c2[nH]c(-c3ccc(Cl)cc3)nc12 [Compound 53],> 1,–
Nc1ccc(CNC(=O)c2ccc(O)c3[nH]c(-c4ccc(Cl)cc4)nc23)cc1 [Compound 54],> 1,–
O=C(NCc1ccccc1)c1ccc(O)c2[nH]c(-c3ccc(Cl)cc3Cl)nc12 [Compound 55],> 1,–
O=C(NCc1ccc([N+](=O)[O-])cc1)c1ccc(O)c2[nH]c(-c3ccc(Cl)cc3Cl)nc12 [Compound 56],0.7,–
O=C(NCCc1ccccc1)c1ccc(O)c2nc(-c3ccccc3)[nH]c12 [Compound 57],0.58,–
O=C(NCCc1ccc(O)cc1)c1ccc(O)c2[nH]c(-c3ccccc3)nc12 [Compound 58],0.67,–
O=C(NCCc1ccc([N+](=O)[O-])cc1)c1ccc(O)c2[nH]c(-c3ccccc3)nc12 [Compound 59],0.16,–
Nc1ccc(CCNC(=O)c2ccc(O)c3nc(-c4ccccc4)[nH]c23)cc1 [Compound 60],0.35,–
